Experimental data taken from BigSolDB 2.1.

CCC(CO)(CO)C(=O)O
solubility (mole fraction)
Details | in 1,4-dioxane | in MIBK | in cyclopentyl methyl ether | in ethyl acetate | in gamma-butyrolactone | in n-butyl acetate | in toluene
298.15 K | 0.122 | 0.0218 | 0.0121 | 0.0111 | 0.0688 | 0.0119 | 0.00039
303.15 K | 0.153 | 0.0297 | 0.013 | 0.0184 | 0.0859 | 0.0125 | 0.00056
308.15 K | 0.176 | 0.0362 | 0.0168 | 0.0228 | 0.105 | 0.0129 | 0.00073
313.15 K | 0.201 | 0.0433 | 0.0208 | 0.0281 | 0.136 | 0.0153 | 0.0008
318.15 K | 0.217 | 0.0523 | 0.0266 | 0.0338 | 0.151 | 0.0228 | 0.00087
323.15 K | 0.259 | 0.0575 | 0.032 | 0.0443 | 0.173 | 0.0317 | 0.00093
328.15 K | 0.324 | 0.07 | 0.0374 | 0.0539 | 0.212 | 0.0379 | 0.00093
333.15 K | – | 0.077 | 0.0425 | 0.0612 | 0.232 | 0.0477 | 0.00099
338.15 K | – | 0.0891 | 0.054 | 0.069 | 0.263 | 0.0619 | 0.00105
343.15 K | – | 0.11 | 0.0674 | – | – | 0.0768 | –
345.15 K | – | 0.121 | 0.0749 | – | – | 0.093 | –
348.15 K | – | 0.132 | 0.0917 | – | – | 0.111 | –
350.15 K | – | 0.156 | 0.107 | – | – | 0.132 | –
353.15 K | – | 0.184 | 0.133 | – | – | 0.169 | –
